Laboratory results from patent US20220106272A1 (Terran Biosciences, Inc., priority 2018, published 2022).

Test: Metabolic stability in human liver microsomes
Format: in vitro ADME
Settings: 0.25 μM test compound; for half-life at 0.25 μM: 2 mM NADPH, 37° C.; for CLint scaled at 0.25 μM: human liver microsomes
Description: Microsomal Assay: Human liver microsomes (20 mg/mL) were obtained from Xenotech, LLC (Lenexa, Kans.). β-nicotinamide adenine dinucleotide phosphate, reduced form (NADPH), magnesium chloride (MgCl2), and dimethyl sulfoxide (DMSO) were purchased from Sigma-Aldrich.
Determination of Metabolic Stability: 7.5 mM stock solutions of test compounds of structural formula (I) (e.g., of an embodiment or aspect of embodiment thereof described herein) or structural formula (II), or pharmaceutically acceptable salt thereof, were prepared in DMSO. The 7.5 mM stock solutions were diluted to 12.5-50 μM in acetonitrile (ACN). The 20 mg/mL human liver microsomes were diluted to 0.625 mg/mL in 0.1 M potassium phosphate buffer, pH 7.4, containing 3 mM MgCl2. The diluted microsomes were added to wells of a 96-well deep-well polypropylene plate in triplicate. A 10 μL aliquot of the 12.5-50 μM test compound was added to the microsomes and the mixture was pre-warmed for 10 minutes. Reactions were initiated by addition of pre-warmed NADPH solution. The final reaction volume was 0.5 mL and contained […] human liver microsomes, 0.25 μM test compound, and 2 mM NADPH in 0.1 M potassium phosphate buffer, pH 7.4, and 3 mM MgCl2. The reaction mixtures were incubated at 37° C., and 50 μL aliquots were removed at 0, 5, 10, 20, and 30 minutes and added to shallow-well 96-well plates which contain 50 μL of ice-cold ACN (acetonitrile) with internal standard to stop the reactions. The plates were stored at 4° C. for 20 minutes after which 100 μL of water was added to the wells of the plate before centrifugation to pellet precipitated proteins. Supernatants were transferred to another 96-well plate and analyzed for amounts of parent remaining by LC-MS/MS using an Applied Bio-systems API 4000 mass spectrometer. The same procedure was followed for the non-deuterated counterpart of the compound of Formula I and the positive control, 7-ethoxycoumarin (1 μM). Testing was done in triplicate.
Data analysis: The in vitro t1/2s for test compounds were calculated from the slopes of the linear regression of % parent remaining (ln) vs incubation time relationship.
k=−[slope of linear regression of % parent remaining (ln) vs incubation time]
The apparent intrinsic clearance was calculated using the following equation:
CLint(mL/min/kg)=(0.693/in vitro t1/2)(Incubation Volume/mg of microsomes)(45 mg microsomes/gram of liver)(20 gm of liver/kg b.w.)
Data analysis was performed using Microsoft Excel Software.

[1] = pH 7.4, EXP# 2503, 4.0 mg/mL human liver microsomes
[2] = pH 7.4, EXP#2503, apparent intrinsic clearance
[3] = pH 7.4, EXP# 2506, 4.0 mg/mL human liver microsomes
[4] = pH 7.4, EXP# 2506, apparent intrinsic clearance

| half-life at 0.25 μM [1] [h] | CLint scaled at 0.25 μM [2] [mL/min/kg] | half-life at 0.25 μM [3] [h] | CLint scaled at 0.25 μM [4] [mL/min/kg] | Structure (SMILES) |
| --- | --- | --- | --- | --- |
|  |  | 1.16 | 2.3 | [2H]C([2H])([2H])Oc1cccc([C@H](O)C2CCN(CCc3ccc(F)cc3)CC2)c1OC [Compound 115, (R)-(1-(4-fluorophenethyl)piperidin-4-yl)(2-methoxy-3-(methoxy-d3)phenyl)methanol] |
| 0.777 | 3.4 |  |  | [2H]C([2H])(Cc1ccc(F)cc1)N1C([2H])([2H])C([2H])([2H])C([2H])([C@@H](O)c2cccc(OC)c2OC)C([2H])([2H])C1([2H])[2H] [Compound 215, (R)-(2,3-dimethoxyphenyl)(1-(2-(4-fluorophenyl)ethyl-1,1-d2)piperidin-4-yl-2,2,3,3,4,5,5,6,6-d9)methanol] |
|  |  | 1.17 | 2.3 | [2H]C([2H])([2H])Oc1cccc([C@H](O)C2CCN(C([2H])([2H])Cc3ccc(F)cc3)CC2)c1OC([2H])([2H])[2H] [Compound 151, (R)-(2,3-bis(methoxy-d3)phenyl)(1-(2-(4-fluorophenyl)ethyl-1,1-d2)piperidin-4-yl)methanol] |
| 0.815 | 3.2 |  |  | [2H]C([2H])([2H])Oc1cccc([C@H](O)C2([2H])C([2H])([2H])C([2H])([2H])N(CCc3ccc(F)cc3)C([2H])([2H])C2([2H])[2H])c1OC([2H])([2H])[2H] [Compound 347, (R)-(2,3-bis(methoxy-d3)phenyl)(1-(4-fluorophenethyl)piperidin-4-yl-2,2,3,3,4,5,5,6,6-d9)methanol] |

Further lines, the compound ahead of its results:

| Structure (SMILES) | half-life at 0.25 μM [1] [h] | CLint scaled at 0.25 μM [2] [mL/min/kg] | half-life at 0.25 μM [3] [h] | CLint scaled at 0.25 μM [4] [mL/min/kg] |
| --- | --- | --- | --- | --- |
| COc1cccc([C@H](O)C2CCN(CCc3ccc(F)cc3)CC2)c1OC [volinanserin, (R)-(+)-α-(2,3-dimethoxyphenyl)-1-[2-(4-fluorophenyl)ethyl]-4-piperidinemethanol, reference compound] | 0.745 | 3.5 | 0.808 | 3.2 |
| [2H]C1([2H])N(CCc2ccc(F)cc2)C([2H])([2H])C([2H])([2H])C([2H])([C@@H](O)c2cccc(OC)c2OC)C1([2H])[2H] [Compound 203, (R)-(2,3-dimethoxyphenyl)(1-(4-fluorophenethyl)piperidin-4-yl-2,2,3,3,4,5,5,6,6-d9)methanol] | 0.794 | 3.4 |  |  |
| [2H]C([2H])([2H])Oc1cccc([C@H](O)C2CCN(CCc3ccc(F)cc3)CC2)c1OC([2H])([2H])[2H] [Compound 147, (R)-(2,3-bis(methoxy-d3)phenyl)(1-(4-fluorophenethyl)piperidin-4-yl)methanol] |  |  | 1.12 | 2.3 |
| [2H]C([2H])([2H])Oc1c(OC)cccc1[C@H](O)C1CCN(CCc2ccc(F)cc2)CC1 [Compound 131, (R)-(1-(4-fluorophenethyl)piperidin-4-yl)(3-methoxy-2-(methoxy-d3)phenyl)methanol] |  |  | 1.19 | 2.4 |
| [2H]C([2H])([2H])Oc1cccc([C@H](O)C2CCN(C([2H])([2H])C([2H])([2H])c3ccc(F)cc3)CC2)c1OC([2H])([2H])[2H] [Compound 159, (R)-(2,3-bis(methoxy-d3)phenyl)(1-(2-(4-fluorophenyl)ethyl-1,1,2,2-d4)piperidin-4-yl)methanol] |  |  | 1.42 | 1.9 |
| [2H]C([2H])([2H])Oc1cccc([C@H](O)C2([2H])C([2H])([2H])C([2H])([2H])N(C([2H])([2H])Cc3ccc(F)cc3)C([2H])([2H])C2([2H])[2H])c1OC([2H])([2H])[2H] [Compound 359, (R)-(2,3-bis(methoxy-d3)phenyl)(1-(2-(4-fluorophenyl)ethyl-1,1-d2)piperidin-4-yl-2,2,3,3,4,5,5,6,6-d9)methanol] | 1.1 | 2.4 |  |  |
| [2H]C([2H])([2H])Oc1cccc([C@]([2H])(O)C2CCN(CCc3ccc(F)cc3)CC2)c1OC([2H])([2H])[2H] [Compound 148, (R)-(2,3-bis(methoxy-d3)phenyl)(1-(4-fluorophenethyl)piperidin-4-yl)methan-d-ol] |  |  | 1.19 | 2.2 |
| [2H]C([2H])([2H])Oc1cccc([C@H](O)C2([2H])C([2H])([2H])C([2H])([2H])N(C([2H])([2H])C([2H])([2H])c3ccc(F)cc3)C([2H])([2H])C2([2H])[2H])c1OC([2H])([2H])[2H] [Compound 383, (R)-(2,3-bis(methoxy-d3)phenyl)(1-(2-(4-fluorophenyl)ethyl-1,1,2,2-d4)piperidin-4-yl-2,2,3,3,4,5,5,6,6-d9)methanol] | 1.23 | 2.3 |  |  |
